In general, LD50 refers to the dose at which mortality reaches 50%. Low values mean greater toxicity, high ones lower toxicity.

The record followed here is patent US4981855A, “Medicament for psoriasis” (Takeda Chemical Industries, Ltd., priority 1988, dated 1991).

The subject of data set [1] is Reversed Passive Arthus Reaction. Kind of data set: Rat reversed passive Arthus reaction, percutaneous ointment (Experiment 2). The following applies: for Inhibition rate (%): ointment (white petrolatum base). Type of data set: in vivo, Rat (Jcl:SD). Here is the method:
(§1) A group consisting of six Jcl:SD rats (7 week old, male) was used. The hair of the back of the animals was cut, under ether anesthesia, and 1 ml each of a 0.5% solution of egg albumin in physiological saline solution was injected into the tail vein of each test animal, followed by intradermal injection of 0.1 ml of rabbit anti-egg albumin antiserum at each of the left and right sides of the back and a further intradermal injection of 0.1 ml of physiological saline solution at the left side. Three hours later, each animal was intraveneously injected with 1 ml of 1% Evans' blue physiological saline solution. Thirty minutes later, the test animals were exfoliated and the area(mm^2) of each of the blue spots was measured. The test sample in a dose of 3 mg/kg was orally administered one hour before the injection of egg albumin. By comparing the area(mm^2) of the blue spot in the test group (treated group) with that of the control group (untreated group), inhibition rate was determined.
In place of the oral administration of 3 mg/kg of each specimen, two type of ointments (of which base is white petrolatum) different in specimen content as given in Table 2 and control petrolatum were applied to the reaction sites in an experiment in a similar manner as in Experiment 1.

Data set [2] concerns skin of the backs of rabbits (normal skin and damaged skin). The experiment in a line: Four-week cumulative skin irritation test in rabbits (Experiment 4). It counts as in vivo, Rabbit. Conditions: 0.25 g once a day for 4 weeks. The text has this:
Four-Week Cumulative Skin Irritation Test in Rabbits [Procedure]
0.25 g of each of white petrolatum (placebo) and 2.5% and 5.0% compound (A) ointments (of which base is white petrolatum) was applied to 2.5×2.5cm test sites (normal skin and damaged skin) formed on the skin of the backs of rabbits once a day for 4 weeks. The skin was observed daily according to the method of Draize [J. H. Draize et al., J. Pharmacol. Exp. Therap. 82, 337 (1944)]. On the day succeeding the completion of the administration, postmortem examinations were carried out and histopathologic examinations were conducted for the skin of the administrated sites.

The nature of data set [3]: Acute toxicity in rats (Experiment 3). Also noted: species or system Rat (JcL:Wistar). Conditions: rat, in vivo. From the text:
(§2) The acute toxicity of the compound (A) was examined by using Jcl:ICR mice and JcL:Wistar rats.

Data set [4] in a line: Acute toxicity in mice (Experiment 3). Type of data set: in vivo, Mouse (Jcl:ICR). The following applies: mouse, in vivo.
Excerpt: as §2

The subject of data set [5] is Jcl:ICR mice. The experiment in a line: Acute toxicity in mice (Experiment 3). Type of data set: in vivo, Mouse (Jcl:ICR). The following applies: mice and rats; intraperitoneal, subcutaneous and oral (Table 3).
Excerpt: as §2

The subject of data set [6] is Type III Allergic Reaction (Reversed Passive Arthus Reaction). Kind of data set: Type III allergic reaction (reversed passive Arthus reaction) in rats, oral (Experiment 1). The following applies: Rat; for inhibition in vivo at 3 mg/kg: 1 h, 3 mg/kg P.O., one hour before egg albumin, blue spot area vs. control, * P < 0.05, ** P < 0.01, read-out: Inhibition rate (%); for ED50: P.O., read-out: ID50 values. Type of data set: in vivo, Rat (Jcl:SD). Here is the method:
Effect on Type III Allergic Reaction (Reversed Passive Arthus Reaction) in Rats
as §1, with “The test sample in a dose of 3 mg/kg was orally administered one hour before the injection of egg albumin.” left out

With `CCCCn1c(=O)n(CCC)c(=O)c2c(NC)n(C(=O)OC)nc21` [Compound (A)], the “Inhibition rate (%)” value in data set [1] (1.25 mg/site, *p < 0.05 vs. control) is 46%; in data set [1] (2.5 mg/site, **p < 0.01 vs. control), 59%. In data set [1] (percutaneous administration), the “effect on reversed passive Arthus reaction” value is “significantly depresses the reversed passive Arthus reaction”. In addition, the cumulative skin irritation result in data set [2] (2.5% ointment (white petrolatum base)) and in data set [2] (5% ointment (white petrolatum base)) was “no cumulative skin irritation” in each case. Moreover, the 50% lethal dose (LD50) in data set [3] (ip, female, intraperitoneal) is 580 mg/kg; in data set [3] (ip, male, intraperitoneal), 650 mg/kg; in data set [3] (po, female), 2380 mg/kg; in data set [3] (po, male) it was 2730 mg/kg; in data set [3] (sc, female, subcutaneous), above 6500 mg/kg; in data set [3] (sc, male, subcutaneous), above 6500 mg/kg. The LD50 is 1260 mg/kg in data set [4] (ip, female, intraperitoneal); 1040 mg/kg in data set [4] (ip, male, intraperitoneal); 6310 mg/kg in data set [4] (po, female); 4650 mg/kg in data set [4] (po, male); above 5000 mg/kg in data set [4] (sc, female, subcutaneous); above 5000 mg/kg in data set [4] (sc, male, subcutaneous). In data set [5], the “acute toxicity” value was “low in toxicity and can be safely administered”.
For the compound `CCCCn1c(=O)c2c(NC)n(C)nc2n(CCCC)c1=O` [Compound 9], in data set [6], the inhibition in vivo at 3 mg/kg was determined as 31%.
`CCCCn1c(=O)c2c(NC)n(C(=O)OC)nc2n(CCCC)c1=O` [Compound 8]: in data set [6], the inhibition in vivo at 3 mg/kg was determined as 30% and the ED50 turned out to be 30 mg/kg.
For the compound `CCCn1c(=O)c2c(N(C)C)n(C)nc2n(CCC)c1=O` [Compound 4], the inhibition in vivo at 3 mg/kg in data set [6] amounted to 56%.
For the compound `CCCCn1c(=O)c2c(NC)n(C(=O)OC)nc2n(CCC)c1=O` [Compound 7], in data set [6], the inhibition in vivo at 3 mg/kg amounted to 49% and the ED50 was 3 mg/kg.
As to `CCCn1c(=O)c2c(N(C)C)nn(C)c2n(CCC)c1=O` [Compound 5], the inhibition in vivo at 3 mg/kg in data set [6] was 53%.
With `CCCCn1c(=O)n(CCC)c(=O)c2c(NC)n(C(=O)OC)nc21` [Compound 6], in data set [6], the inhibition in vivo at 3 mg/kg stood at 43% and the ED50 amounted to 5.3 mg/kg.
The corresponding values for `CCCn1c(=O)c2c(N)n(C(=O)OC)nc2n(CCC)c1=O` [Compound 2] are 50% and 2.4 mg/kg.
The matching figures for `CCn1c(=O)c2c(N)n(C(=O)OC)nc2n(CC)c1=O` [Compound 1]: 35% and 13.7 mg/kg.
`CCCn1c(=O)c2c(NC(C)=O)[nH]nc2n(CCC)c1=O` [Compound 3]: in data set [6], the inhibition in vivo at 3 mg/kg was determined as 55% and the ED50 amounted to 2.9 mg/kg.
